Experimental data from patent US5326766A, “4-(2-(4-(2-pyridinyloxy)phenyl)ethoxy)quinazoline and analogues thereof” (priority 1992, dated 1994).

How the values were obtained:
[1] = system: Pyricularia oryzae (rice blast); assay: whole plant or invertebrate; type: in vivo; details: Pyricularia oryzae, foliar, read-out: PYRIOR disease control, host rice; foliar spray; 400 ppm (+++: 100 ppm)
[2] = system: aster leafhopper (Macrosteles fascifrons); assay: whole plant or invertebrate; type: in vivo; details: Macrosteles fascifrons, 24 h, read-out: ALH percent mortality
Procedure: (§1) The compounds identified in Table I were tested for miticidal and insecticidal activity against eight species. The following abbreviations are used in the Table III:
ALH refers to aster leafhopper
(§2) In conducting evaluations of insecticidal activity, each test compound was formulated as a 400 ppm solution, and this solution was then diluted with water to give lesser concentrations. The 400 ppm solution was prepared by combining 19.2 mL of 0.05% solution of Tween 20 (polyoxyethylene (20) sorbitan monolaurate) in water with a solution of 8 mg of the compound in 0.8 mL of acetone/EtOH (9/1).
Activity against aster leafhopper (Macrosteles fascifrons) was tested as follows. The test was run using concentrations of 400 ppm and 50 ppm. One ounce plastic cups containing a cotton wick was sprayed with 0.4 mL of formulated material using a flat-fan nozzle. The excess moisture was allowed to evaporate. Then five to ten carbon dioxide anesthetized adult leafhoppers were added to each cup. The cups were capped and held at room temperature for 24 hours. Percent mortality was then determined.

[3] = system: beet armyworm (Spodoptera exiqua); assay: Activity against beet armyworm; type: in vivo; details: Spodoptera, 144 h, 6 days, read-out: BAW activity (rated on live and dead larvae and size of live larvae)
Procedure: as §1
BAW refers to beet armyworm
as §2
Activity against beet armyworm (Spodoptera exiqua) was evaluated as follows. The test is run using concentrations of 400 ppm and 50 ppm. A general purpose lepidoptera artificial diet was diluted to half strength with a 5% non nutritive agar. 8 mL of this diet material was dispensed into one ounce diet cups. One hour prior to treatment, 35 to 40 eggs were dispensed onto the diet surface. The cups were then sprayed with formulated material through a flat-fan nozzle. Treated cups were air dried prior to sealing with plastic caps. The cups were held for 6 days at room temperature. Activity was then rated based on the total number of live and dead larvae, and on the size of live larvae.

[4] = system: Southern corn rootworm (Diabrotica undecimpuctata howardi Barber); assay: whole plant or invertebrate; type: in vivo; details: 400 ppm, soil concentration of 24 ppm, 3-4 days, read-out: SCRW mortality
Procedure: as §1
SCRW refers to southern corn rootworm
as §2
Activity on Southern corn rootworm (Diabrotica undecimpuctata howardi Barber) was evaluated by adding one mL of test solution containing a predetermined concentration of test compound to a cup containing a kernel of corn in 16 g of sterile soil. This produces a soil concentration of 24 ppm. After 1.5 to 2 hours of drying, five 4th instar corn rootworm larvae were added to the individual cups. Mortality was measured at 3-4 days by emptying the cup onto a pan and inspecting the soil for live rootworms.

[5] = system: tobacco budworm (Heliothis virescens); assay: Activity against tobacco budworm; type: in vivo; details: Heliothis virescens, 144 h, 6 days, read-out: TBW activity (rated on live and dead larvae and size of live larvae)
Procedure: as §1
TBW refers to tobacco budworm
as §2
Activity against tobacco budworm (Heliothis virescens) was evaluated as follows. A general purpose lepidoptera artificial diet was diluted to half strength with a 5% non nutritive agar. 8 mL of this diet material was dispensed into each one ounce diet cup. One hour prior to treatment 18 to 20 eggs were dispensed onto the diet surface. The cups were then sprayed with formulated material through a flat-fan nozzle. The test was run using concentrations of 400 ppm and 50 ppm. Treated cups were air dried prior to sealing with plastic caps. The cups were held for 6 days at room temperature. Activity was then rated based on the total number of live and dead larvae, and on the size of live larvae.

[6] = system: German cockroach (Blattella germanicus); assay: whole plant or invertebrate; type: in vivo; details: 240 h, ten days, read-out: GECR activity (rated on live and dead insects)
Procedure: as §1
GECR refers to German cockroach
as §2
Activity against German cockroach (Blattella germanicus) was evaluated as follows. 8 mL of alfalfa based green insect diet material was dispensed into a one ounce diet cup. The cups were then sprayed with formulated material through a flat-fan nozzle. The test was run using concentrations of 400 ppm and 50 ppm. Treated cups were air dried for 24 hours and infested with five late third or early fourth instar German cockroaches. The cups were capped and held for ten days in an environmental growth chamber at a temperature of […]. Activity was then rated based on the total number of live and dead insects.

[7] = system: cotton aphid (Aphis gossypii); assay: whole plant or invertebrate; details: 72 h; for mortality at 50 ppm: read-out: CA activity (percent based on aphids present in plants sprayed with solvent alone), 50 ppm, squash plants, three days after treatment; for mortality at 400 ppm: read-out: CA activity (percent based on aphids present in plants sprayed with solvent alone), 400 ppm, squash plants, three days after treatment
[8] = system: two spotted spider mite (Tetranychus urticae); assay: whole plant or invertebrate; details: 72 h; for mortality at 50 ppm: read-out: TSSM activity (percent based on mites present in plants sprayed with solvent alone), 50 ppm, squash plants, three days after treatment; for mortality at 400 ppm: read-out: TSSM activity (percent based on mites present in plants sprayed with solvent alone), 400 ppm, squash plants, three days after treatment
[9] = system: Plasmopara viticola (downy mildew); assay: Foliar spray fungicide test, Plasmopara viticola (downy mildew) on grape; details: Plasmopara viticola, foliar, read-out: PLASVI disease control
Procedure: (§3) The test compounds were formulated for application by dissolving 50 mg of the compound into 1.25 ml of solvent. The solvent was prepared by mixing 50 ml of "Tween 20" (polyoxyethylene (20) sorbitan monolaurate emulsifier) with 475 ml of acetone and 475 ml of ethanol. The solvent/compound solution was diluted to 125 ml with deionized water. The resulting formulation contains 400 ppm test chemical. Lower concentrations were obtained by serial dilution with the solvent-surfactant mixture.
(§4) The formulated test compounds were applied by foliar spray.
(§5) The formulated technical compounds were sprayed on all foliar surfaces of the host plants to past run-off. Single pots of each host plant were placed on raised, revolving pedestals in a fume hood. Test solutions were sprayed on all foliar surfaces. All treatments were allowed to dry and the plants were inoculated with the appropriate pathogens within 24 hours.
(§6) The effectiveness of test compounds in controlling disease was rated using the following scale.

[10] = system: Leptosphaeria nodorum (glume blotch); assay: Foliar spray fungicide test, Leptosphaeria nodorum (glume blotch) on wheat; details: Parastagonospora nodorum, in Triticum aestivum, foliar, read-out: LETPNO disease control, host wheat, 400 ppm (+++: 100 ppm)
Procedure: as §3, §4, §5, §6

[11] = system: Puccinia recondita tritici (leaf rust); assay: Foliar spray fungicide test, Puccinia recondita tritici (leaf rust) on wheat; details: Puccinia recondita, in Triticum aestivum, foliar, read-out: PUCCRT disease control, host wheat, 400 ppm (+++: 100 ppm)
[12] = system: Erysiphe graminis tritici (powdery mildew); assay: Foliar spray fungicide test, Erysiphe graminis tritici (powdery mildew) on wheat; details: Blumeria graminis, in Triticum aestivum, foliar, read-out: ERYSGT disease control, host wheat, 400 ppm (+++: 100 ppm)
Procedure: as §3
The formulated test compounds were applied by foliar spray. The following plant pathogens and their corresponding plants were employed.
as §5, §6

Fc1cccc2c(NCCc3ccc(Oc4ccc(C(F)(F)F)cn4)cc3)ncnc12 [Compound 28, 8-Fluoro-4-(2-(4-(5-(trifluoromethyl)-2-pyridinyloxy)phenyl)ethylamino)quinazoline]
80%: mortality at 400 ppm [6]
90 to 100%: pest or weed control at 400 µg/mL [9] | pest or weed control at 400 µg/mL [10] | pest or weed control at 400 µg/mL [11] | pest or weed control at 400 µg/mL [12]
0%: mortality at 24 ppm [4] | mortality at 50 ppm [6]
20 to 89%: pest or weed control at 400 µg/mL [1]
100%: mortality at 50 ppm [2] | mortality at 400 ppm [2] | pest or weed control at 50 ppm [3] | pest or weed control at 400 ppm [3] | pest or weed control at 50 ppm [5] | pest or weed control at 400 ppm [5] | mortality at 50 ppm [7] | mortality at 400 ppm [7] | mortality at 50 ppm [8] | mortality at 400 ppm [8]

Fc1cc(C(F)(F)F)cnc1Oc1ccc(CCNc2ncnc3c(F)cccc23)cc1 [Compound 6]
20%: mortality at 400 ppm [6]
40%: mortality at 50 ppm [6]
100%: mortality at 50 ppm [2] | mortality at 400 ppm [2] | pest or weed control at 50 ppm [3] | pest or weed control at 400 ppm [3] | pest or weed control at 50 ppm [5] | pest or weed control at 400 ppm [5]
90 to 100%: pest or weed control at 400 µg/mL [1] | pest or weed control at 400 µg/mL [9] | pest or weed control at 400 µg/mL [10] | pest or weed control at 400 µg/mL [11] | pest or weed control at 400 µg/mL [12]
0%: mortality at 24 ppm [4] | mortality at 50 ppm [7] | mortality at 400 ppm [7] | mortality at 50 ppm [8] | mortality at 400 ppm [8]

Fc1cc(C(F)(F)F)cnc1Oc1ccc(CCOc2ncnc3cccc(F)c23)cc1 [Compound 7]
80%: mortality at 400 ppm [2]
0 to 19%: pest or weed control at 400 µg/mL [1] | pest or weed control at 400 µg/mL [9] | pest or weed control at 400 µg/mL [10] | pest or weed control at 400 µg/mL [11] | pest or weed control at 400 µg/mL [12]
100%: mortality at 50 ppm [2] | pest or weed control at 50 ppm [3] | pest or weed control at 400 ppm [3] | pest or weed control at 50 ppm [5] | pest or weed control at 400 ppm [5] | mortality at 50 ppm [7] | mortality at 400 ppm [7] | mortality at 50 ppm [8] | mortality at 400 ppm [8]
0%: mortality at 24 ppm [4] | mortality at 50 ppm [6] | mortality at 400 ppm [6]

Fc1cccc2ncnc(OCCc3ccc(Oc4ccc(Cl)cn4)cc3)c12 [Compound 16]
90 to 100%: pest or weed control at 400 µg/mL [1] | pest or weed control at 400 µg/mL [9] | pest or weed control at 400 µg/mL [11] | pest or weed control at 400 µg/mL [12]
0%: mortality at 50 ppm [6]
100%: mortality at 400 ppm [2] | pest or weed control at 50 ppm [3] | pest or weed control at 400 ppm [3] | pest or weed control at 50 ppm [5] | pest or weed control at 400 ppm [5] | mortality at 50 ppm [7] | mortality at 400 ppm [7] | mortality at 50 ppm [8] | mortality at 400 ppm [8]
40%: mortality at 400 ppm [6]
20 to 89%: pest or weed control at 400 µg/mL [10]
80%: mortality at 50 ppm [2] | mortality at 24 ppm [4]

ClC(Cl)(Cl)c1ccc(Oc2ccc(CCOc3ncnc4ccccc34)cc2)nc1 [Compound 26]
0%: pest or weed control at 400 ppm [3] | mortality at 24 ppm [4] | mortality at 400 ppm [6]
90 to 100%: pest or weed control at 400 µg/mL [9] | pest or weed control at 400 µg/mL [11]
0 to 19%: pest or weed control at 400 µg/mL [10] | pest or weed control at 400 µg/mL [12]
20 to 89%: pest or weed control at 400 µg/mL [1]
100%: mortality at 400 ppm [2] | pest or weed control at 400 ppm [5] | mortality at 400 ppm [7] | mortality at 400 ppm [8]

FC(F)(F)c1ccc(Oc2ccc(CCNc3ncnc4ccccc34)cc2)nc1 [Compound 29]
0%: mortality at 50 ppm [6]
100%: mortality at 50 ppm [2] | mortality at 400 ppm [2] | pest or weed control at 50 ppm [3] | pest or weed control at 400 ppm [3] | mortality at 24 ppm [4] | pest or weed control at 50 ppm [5] | pest or weed control at 400 ppm [5] | mortality at 400 ppm [7] | mortality at 50 ppm [8] | mortality at 400 ppm [8]
20%: mortality at 400 ppm [6]
90%: mortality at 50 ppm [7]
20 to 89%: pest or weed control at 400 µg/mL [10]
90 to 100%: pest or weed control at 400 µg/mL [1] | pest or weed control at 400 µg/mL [9] | pest or weed control at 400 µg/mL [11] | pest or weed control at 400 µg/mL [12]

Fc1cccc2ncnc(OCCc3ccc(Oc4nc(Cl)c(Cl)cc4Cl)cc3)c12 [Compound 43]
0%: mortality at 50 ppm [2] | mortality at 400 ppm [2] | pest or weed control at 50 ppm [3] | pest or weed control at 400 ppm [3] | mortality at 24 ppm [4] | pest or weed control at 50 ppm [5] | pest or weed control at 400 ppm [5] | mortality at 50 ppm [6] | mortality at 400 ppm [6] | mortality at 50 ppm [7] | mortality at 400 ppm [7] | mortality at 50 ppm [8] | mortality at 400 ppm [8]
0 to 19%: pest or weed control at 400 µg/mL [1] | pest or weed control at 400 µg/mL [10] | pest or weed control at 400 µg/mL [11] | pest or weed control at 400 µg/mL [12]

O=[N+]([O-])c1ccc(Oc2ccc(CCOc3ncnc4c(F)cccc34)cc2)nc1 [Compound 23]
90 to 100%: pest or weed control at 400 µg/mL [9] | pest or weed control at 400 µg/mL [11]
90%: mortality at 400 ppm [7]
20 to 89%: pest or weed control at 400 µg/mL [1] | pest or weed control at 400 µg/mL [10] | pest or weed control at 400 µg/mL [12]
40%: mortality at 400 ppm [6]
80%: mortality at 400 ppm [2]
50%: mortality at 400 ppm [8]
0%: mortality at 24 ppm [4] | mortality at 50 ppm [6] | mortality at 50 ppm [7] | mortality at 50 ppm [8]
60%: mortality at 50 ppm [2]
100%: pest or weed control at 50 ppm [3] | pest or weed control at 400 ppm [3] | pest or weed control at 50 ppm [5] | pest or weed control at 400 ppm [5]
